# Measured values from ChEMBL document CHEMBL1201862, “PubChem BioAssay data set” (2004).
# Calls of active or inactive are those of the source.
# Experiments:
# [1] = biological target: 26S proteasome non-ATPase regulatory subunit 14 (Homo sapiens, UniProt O00487); assay: inhibition of proteasome subunit RPN11 – biochemical, fluorescence polarization, uHTS hits, confirmation (AID 602368); type: functional
# [2] = biological target: 72 kDa type IV collagenase (Homo sapiens, UniProt P08253); assay: Dose Response validation of uHTS RPN11 inhibitor hits using a MMP-2 Fluorescence assay.; type: functional
# Prothrombin = Prothrombin (Bos taurus, UniProt P00735); assay: thrombin protease inhibitors – biochemical, fluorescence polarization, uHTS hits, dose response (AID 602369); type: functional
# [3] = biological target: Peroxisome proliferator-activated receptor gamma/Nuclear receptor coactivator 1 (Homo sapiens, UniProt P37231); assay: (§1) TR-FRET dose response biochemical High Throughput Screening assay for agonists of the steroid receptor coactivator 1 (SRC-1) recruitment by the peroxisome proliferator-activated receptor gamma (PPAR gamma): non-selective agonists. [Related pubchem assays (depositor defined):AID1300, AID1808, AID504735, AID631]; type: protein assay
# [4] = biological target: Peroxisome proliferator-activated receptor gamma/Nuclear receptor coactivator 3 (Homo sapiens, UniProt P37231); assay: as §1, with “3 (SRC-3)” for “1 (SRC-1)”, “assays: 1301 (Confirmation screen.), 1048 (Primary screen.)]” for “assays (depositor defined):AID1300, AID1808, AID504735, AID631]”; type: functional
# [5] = biological target: Peroxisome proliferator-activated receptor gamma/Nuclear receptor coactivator 2 (Homo sapiens, UniProt P37231); assay: TR-FRET dose response biochemical High Throughput Screening assay for agonists of the steroid receptor coactivator 2 (SRC-2) recruitment by the peroxisome proliferator-activated receptor gamma (PPAR gamma): non-selective agonists. [Related pubchem assays: 1297, 1032 ]; type: functional
# Vero = assay: cells; type: functional; details: Chlorocebus sabaeus
# BJ [6] = assay: BJ-TERT fibroblast viability loss – cell-based, RAS-independent, luminescence, dose response (AID 1933); type: functional; details: Homo sapiens
# BJ [7] = assay: cells; type: functional, cell-based; details: Homo sapiens
# BJ [8] = assay: BJ-TERT-LT-ST fibroblast viability loss – cell-based, RAS-independent, luminescence, dose response (AID 1935); type: functional; details: Homo sapiens;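 also: BJ fibroblasts immortalized with TERT plus LT and ST oncogenes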
# [9] = DRD fibroblast viability loss – cell-based, non-viral oncogenic, luminescence, dose response (AID 1934); type: functional; details: Homo sapiens
# BJ [10] = assay: growth inhibition of engineered Ras-driven BJ cells – cell-based, alamar blue fluorescence, cherrypicked samples, dose response (AID 2631); type: functional; details: Homo sapiens;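 also: confirmatory dose-response assay in RAS-dependent BJ fibroblasts engineered with TERT, LT and ST, with cytotoxicity read by fluorescence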
# Beta-galactosidase = Beta-galactosidase (Escherichia coli, UniProt Q8VNN2); assay: PubChem AID 485352; type: functional
# [11] = biological target: T1, Type-1 angiotensin II receptor (Homo sapiens, UniProt P30556); assay: antagonism of angiotensin II type 1 receptor – cell-based, uHTS hits, selectivity assay for APJ receptor antagonist project, dose response (AID 463214); type: functional;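 also: antagonist potency against angiotensin II stimulated AT1 response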
# T1 sequence (P30556 whole entry): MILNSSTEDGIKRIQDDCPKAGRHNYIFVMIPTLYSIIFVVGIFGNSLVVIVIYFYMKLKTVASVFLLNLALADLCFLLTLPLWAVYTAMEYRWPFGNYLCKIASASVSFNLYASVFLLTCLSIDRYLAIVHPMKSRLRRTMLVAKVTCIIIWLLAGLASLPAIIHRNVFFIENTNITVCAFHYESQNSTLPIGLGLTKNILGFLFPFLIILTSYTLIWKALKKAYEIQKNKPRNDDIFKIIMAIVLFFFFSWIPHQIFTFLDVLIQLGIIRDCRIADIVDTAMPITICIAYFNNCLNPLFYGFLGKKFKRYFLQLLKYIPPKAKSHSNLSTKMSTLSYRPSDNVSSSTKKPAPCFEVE
# [12] = microbe, parasite or virus in culture; type: functional; details: Mycobacterium tuberculosis
# [13] = viability of PTEN-deleted HCT116 cells – cell-based, HCT116 PTEN knockout, dose response (AID 1047); type: functional;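 also: HCT116 colon tumor cells with PTEN knocked out; cells exposed to compound for 60 hours before readout; potency for loss of cell viability measured by luminescence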
# [14] = viability of HCT116 lacking mutant beta-catenin – cell-based, human colon tumor, dose response (AID 1045); type: functional;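 also: HCT116 colon tumor cells with beta catenin knocked out; cells exposed to compound for 60 hours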
# [15] = biological target: G-protein coupled receptor 55 (Homo sapiens, UniProt Q9Y2T6); assay: selective activators of receptor GPR55 – imaging, U2OS cells, beta-arrestin-GFP redistribution, primary screen (AID 1961); type: functional
# Cytochrome P450 2C9 = Cytochrome P450 2C9 (Homo sapiens, UniProt P11712)
# HEK293 [16] = assay: inhibition of NOD1-driven NF-kB reporter – cell-based, luminescence, uHTS, primary screen (AID 1578); type: functional; details: Homo sapiens
# HEK293 [17] = assay: cells; type: functional, cell-based; details: Homo sapiens
# HEK293 [18] = assay: cells; type: functional, cell-based; details: Homo sapiens; remark: listed apart in the source
# HEK293 [19] = assay: NOD2 signaling inhibitors in MDP-stimulated cells, cell-based, uHTS, luminescence (AID 2001); type: functional; details: Homo sapiens
# Aminopeptidase N = biological target: T2, Aminopeptidase N (Plasmodium falciparum FcB1/Columbia, UniProt O96935); assay: malaria alanyl aminopeptidase activity blockers – biochemical, fluorogenic H-Leu-NHMec substrate, 1536-well (AID 1445); set-up: species or system Plasmodium falciparum 3D7, 3D7
# T2 sequence (O96935 whole entry): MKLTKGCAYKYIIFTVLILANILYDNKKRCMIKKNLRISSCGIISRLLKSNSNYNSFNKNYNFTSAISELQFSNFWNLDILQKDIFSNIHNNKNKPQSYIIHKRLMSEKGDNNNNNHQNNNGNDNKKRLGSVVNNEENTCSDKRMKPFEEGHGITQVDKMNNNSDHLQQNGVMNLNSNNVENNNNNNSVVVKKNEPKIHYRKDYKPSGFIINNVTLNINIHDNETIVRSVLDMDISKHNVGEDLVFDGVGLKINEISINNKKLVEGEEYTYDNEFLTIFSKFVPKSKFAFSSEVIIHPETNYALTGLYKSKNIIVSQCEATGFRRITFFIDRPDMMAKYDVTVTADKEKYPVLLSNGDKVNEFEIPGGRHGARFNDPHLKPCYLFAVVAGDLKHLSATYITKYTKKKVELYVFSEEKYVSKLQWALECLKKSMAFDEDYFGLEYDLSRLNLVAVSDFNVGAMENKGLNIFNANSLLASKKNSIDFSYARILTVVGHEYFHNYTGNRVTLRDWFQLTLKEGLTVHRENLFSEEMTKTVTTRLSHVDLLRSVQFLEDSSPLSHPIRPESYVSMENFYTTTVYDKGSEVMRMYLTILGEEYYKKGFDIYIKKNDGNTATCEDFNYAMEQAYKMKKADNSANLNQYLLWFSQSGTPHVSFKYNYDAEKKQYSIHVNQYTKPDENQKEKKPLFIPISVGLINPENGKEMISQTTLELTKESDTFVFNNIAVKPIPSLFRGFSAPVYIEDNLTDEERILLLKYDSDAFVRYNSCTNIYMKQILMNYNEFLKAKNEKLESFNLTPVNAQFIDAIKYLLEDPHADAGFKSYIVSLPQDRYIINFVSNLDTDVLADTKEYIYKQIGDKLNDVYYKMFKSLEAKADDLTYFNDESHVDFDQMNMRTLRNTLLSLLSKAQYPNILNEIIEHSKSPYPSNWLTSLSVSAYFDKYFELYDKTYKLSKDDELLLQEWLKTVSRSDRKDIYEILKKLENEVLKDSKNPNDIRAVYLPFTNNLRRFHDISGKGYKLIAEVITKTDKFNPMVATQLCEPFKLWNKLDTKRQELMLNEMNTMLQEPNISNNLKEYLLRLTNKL
# [20] = biological target: DNA dC->dU-editing enzyme APOBEC-3A (Homo sapiens, UniProt P31941); assay: A3A deaminase inhibition for selectivity – biochemical, dose response (AID 504722); type: functional
# [21] = biological target: DNA dC->dU-editing enzyme APOBEC-3G (Homo sapiens, UniProt Q9HC16); assay: Dose Response confirmation of small molecule APOBEC3G DNA Deaminase Inhibitors via a fluorescence-based single-stranded DNA deaminase assay. [Related pubchem assays (depositor defined):AID493012, AID493028]; type: functional
# [22] = Luminescence Cell-Based Dose Confirmation HTS to Identify Activators of 5'UTR Stem-Loop Driven Alpha-Synuclein mRNA Translation in H4 Neuroglioblastoma Cells. [Related pubchem assays: 1829 (Project Summary), 1814 (Primary HTS)]; type: functional
# [23] = Luminescence Cell-Based Dose Response HTS to Identify Activators of Luciferase Translation or Activity in H4 […] Cells. [Related pubchem assays: 1829 (Project Summary), 1814 (Primary HTS)]; type: functional
# H4 = assay: Luminescence Cell-Based Dose Response HTS to Identify Activators of 5'UTR Stem-Loop Driven Prion Protein mRNA Translation in H4 Neuroglioblastoma Cells. [Related pubchem assays: 1829 (Project Summary), 1814 (Primary HTS)]; type: functional; details: Homo sapiens
# SN12K1 = assay: cells; type: functional; details: Homo sapiens
# INS1 = assay: INS-1E survival protection against cytokine death – cell-based, luminescence, retest, dose response (AID 449756); type: functional; details: Rattus norvegicus;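 also: cell death triggered by IL-1 beta plus TNF-alpha plus IFN-gamma mixture; protective hits raise ATP signal compared with cytokine alone wells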
# [24] = biological target: Heat shock protein HSP 90-alpha (Homo sapiens, UniProt P07900); type: functional, organism-based
# Sequence of DNA dC->dU-editing enzyme APOBEC-3G (Q9HC16 whole entry): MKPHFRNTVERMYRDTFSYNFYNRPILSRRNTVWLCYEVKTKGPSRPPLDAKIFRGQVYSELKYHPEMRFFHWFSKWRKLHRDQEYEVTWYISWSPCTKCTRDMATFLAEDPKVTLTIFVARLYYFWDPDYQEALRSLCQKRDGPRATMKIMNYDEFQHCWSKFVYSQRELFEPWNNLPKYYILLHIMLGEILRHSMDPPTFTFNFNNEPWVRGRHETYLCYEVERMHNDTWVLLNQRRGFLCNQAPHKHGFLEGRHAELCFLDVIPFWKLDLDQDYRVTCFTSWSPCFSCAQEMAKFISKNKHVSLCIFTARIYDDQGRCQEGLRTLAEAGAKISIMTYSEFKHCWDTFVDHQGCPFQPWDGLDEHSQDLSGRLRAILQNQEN
# Sequence of Beta-galactosidase (Q8VNN2 whole entry): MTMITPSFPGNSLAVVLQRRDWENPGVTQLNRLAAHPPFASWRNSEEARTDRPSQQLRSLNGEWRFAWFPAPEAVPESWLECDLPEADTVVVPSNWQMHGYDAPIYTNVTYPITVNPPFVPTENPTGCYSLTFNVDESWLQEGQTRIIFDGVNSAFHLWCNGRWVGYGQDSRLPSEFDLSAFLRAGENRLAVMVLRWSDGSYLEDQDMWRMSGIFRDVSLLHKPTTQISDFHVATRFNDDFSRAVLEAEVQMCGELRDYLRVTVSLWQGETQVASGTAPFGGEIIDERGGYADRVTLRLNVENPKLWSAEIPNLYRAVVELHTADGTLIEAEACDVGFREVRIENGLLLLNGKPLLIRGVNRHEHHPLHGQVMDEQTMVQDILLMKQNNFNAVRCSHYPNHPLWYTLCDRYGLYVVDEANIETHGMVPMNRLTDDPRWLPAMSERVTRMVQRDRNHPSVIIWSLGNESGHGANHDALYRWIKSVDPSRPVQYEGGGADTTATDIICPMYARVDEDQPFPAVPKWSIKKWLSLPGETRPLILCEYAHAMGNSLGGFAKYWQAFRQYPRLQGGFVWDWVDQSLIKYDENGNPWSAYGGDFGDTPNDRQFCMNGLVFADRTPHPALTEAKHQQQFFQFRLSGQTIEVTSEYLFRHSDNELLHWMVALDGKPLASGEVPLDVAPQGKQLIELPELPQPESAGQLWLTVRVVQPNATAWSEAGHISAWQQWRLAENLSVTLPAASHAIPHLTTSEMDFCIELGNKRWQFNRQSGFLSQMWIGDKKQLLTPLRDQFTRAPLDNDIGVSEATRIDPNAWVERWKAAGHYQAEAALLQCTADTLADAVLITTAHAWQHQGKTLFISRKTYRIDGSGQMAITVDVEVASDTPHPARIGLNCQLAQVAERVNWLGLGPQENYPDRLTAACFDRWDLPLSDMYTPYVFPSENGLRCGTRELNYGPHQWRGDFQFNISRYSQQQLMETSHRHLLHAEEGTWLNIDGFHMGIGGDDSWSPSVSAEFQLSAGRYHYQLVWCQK
# Sequence of DNA dC->dU-editing enzyme APOBEC-3A (P31941 whole entry): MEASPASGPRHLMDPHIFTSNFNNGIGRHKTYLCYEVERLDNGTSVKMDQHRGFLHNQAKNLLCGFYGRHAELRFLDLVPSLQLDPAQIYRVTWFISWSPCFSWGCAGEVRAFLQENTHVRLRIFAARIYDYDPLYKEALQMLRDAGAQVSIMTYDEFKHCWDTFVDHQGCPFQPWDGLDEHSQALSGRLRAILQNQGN
# Sequence of Peroxisome proliferator-activated receptor gamma/Nuclear receptor coactivator 1 (P37231 whole entry): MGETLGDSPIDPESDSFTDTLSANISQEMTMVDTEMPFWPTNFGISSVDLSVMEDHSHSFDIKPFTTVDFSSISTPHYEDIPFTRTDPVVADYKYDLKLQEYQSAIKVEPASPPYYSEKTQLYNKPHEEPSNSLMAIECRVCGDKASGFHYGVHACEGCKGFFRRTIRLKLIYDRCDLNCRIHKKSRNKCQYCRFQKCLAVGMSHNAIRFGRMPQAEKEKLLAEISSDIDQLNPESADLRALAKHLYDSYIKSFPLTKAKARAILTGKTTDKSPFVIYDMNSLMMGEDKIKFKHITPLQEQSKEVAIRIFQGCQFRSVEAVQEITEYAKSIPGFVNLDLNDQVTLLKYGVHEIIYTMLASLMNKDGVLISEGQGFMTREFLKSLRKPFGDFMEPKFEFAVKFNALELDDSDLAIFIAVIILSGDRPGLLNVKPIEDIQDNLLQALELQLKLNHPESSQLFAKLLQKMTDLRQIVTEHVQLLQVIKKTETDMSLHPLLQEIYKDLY
# Sequence of Peroxisome proliferator-activated receptor gamma/Nuclear receptor coactivator 1 (Q15788 whole entry, further chain): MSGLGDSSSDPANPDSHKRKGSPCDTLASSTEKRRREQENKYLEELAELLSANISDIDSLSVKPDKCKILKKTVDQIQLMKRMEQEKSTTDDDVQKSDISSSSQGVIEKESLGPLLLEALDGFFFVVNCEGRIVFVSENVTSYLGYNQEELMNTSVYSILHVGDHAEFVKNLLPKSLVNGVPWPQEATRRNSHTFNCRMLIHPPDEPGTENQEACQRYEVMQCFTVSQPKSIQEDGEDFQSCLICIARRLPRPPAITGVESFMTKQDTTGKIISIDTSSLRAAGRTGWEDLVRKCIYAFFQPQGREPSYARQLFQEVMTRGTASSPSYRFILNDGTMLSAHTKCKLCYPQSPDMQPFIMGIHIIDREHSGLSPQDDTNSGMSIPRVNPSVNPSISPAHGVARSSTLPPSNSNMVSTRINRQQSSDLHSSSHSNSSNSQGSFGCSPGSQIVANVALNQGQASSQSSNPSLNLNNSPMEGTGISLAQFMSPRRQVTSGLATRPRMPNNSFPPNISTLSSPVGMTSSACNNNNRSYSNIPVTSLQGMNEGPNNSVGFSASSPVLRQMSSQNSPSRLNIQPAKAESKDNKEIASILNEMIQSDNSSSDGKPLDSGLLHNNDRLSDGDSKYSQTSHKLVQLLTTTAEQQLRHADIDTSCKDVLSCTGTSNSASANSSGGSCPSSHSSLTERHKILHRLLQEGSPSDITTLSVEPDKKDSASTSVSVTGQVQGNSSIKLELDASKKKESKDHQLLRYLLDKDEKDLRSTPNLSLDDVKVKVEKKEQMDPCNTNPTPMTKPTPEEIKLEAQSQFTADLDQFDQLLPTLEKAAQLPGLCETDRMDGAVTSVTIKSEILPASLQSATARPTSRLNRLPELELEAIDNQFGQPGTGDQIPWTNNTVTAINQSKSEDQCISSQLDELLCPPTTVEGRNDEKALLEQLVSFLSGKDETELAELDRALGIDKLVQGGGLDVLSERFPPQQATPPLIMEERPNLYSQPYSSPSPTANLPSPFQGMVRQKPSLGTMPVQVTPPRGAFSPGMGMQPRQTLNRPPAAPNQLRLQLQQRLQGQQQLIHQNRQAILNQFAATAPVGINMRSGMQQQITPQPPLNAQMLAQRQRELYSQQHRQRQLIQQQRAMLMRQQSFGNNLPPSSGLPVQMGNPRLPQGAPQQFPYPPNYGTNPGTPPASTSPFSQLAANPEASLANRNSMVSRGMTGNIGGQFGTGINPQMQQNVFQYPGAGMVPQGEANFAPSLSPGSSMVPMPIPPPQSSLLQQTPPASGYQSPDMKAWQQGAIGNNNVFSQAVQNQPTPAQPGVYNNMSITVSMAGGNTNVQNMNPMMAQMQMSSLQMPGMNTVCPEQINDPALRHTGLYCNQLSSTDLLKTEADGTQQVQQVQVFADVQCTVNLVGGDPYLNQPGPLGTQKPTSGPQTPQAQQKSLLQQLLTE
# Sequence of G-protein coupled receptor 55 (Q9Y2T6 whole entry): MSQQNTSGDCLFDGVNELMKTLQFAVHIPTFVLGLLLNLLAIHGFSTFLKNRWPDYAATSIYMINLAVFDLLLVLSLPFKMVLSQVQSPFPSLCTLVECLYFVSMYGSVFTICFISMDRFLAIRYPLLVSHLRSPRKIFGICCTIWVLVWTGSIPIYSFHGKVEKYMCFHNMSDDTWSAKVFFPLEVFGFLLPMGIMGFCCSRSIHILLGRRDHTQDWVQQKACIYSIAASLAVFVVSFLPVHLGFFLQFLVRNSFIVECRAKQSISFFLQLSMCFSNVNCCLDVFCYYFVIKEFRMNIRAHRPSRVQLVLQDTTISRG
# Sequence of 26S proteasome non-ATPase regulatory subunit 14 (O00487 whole entry): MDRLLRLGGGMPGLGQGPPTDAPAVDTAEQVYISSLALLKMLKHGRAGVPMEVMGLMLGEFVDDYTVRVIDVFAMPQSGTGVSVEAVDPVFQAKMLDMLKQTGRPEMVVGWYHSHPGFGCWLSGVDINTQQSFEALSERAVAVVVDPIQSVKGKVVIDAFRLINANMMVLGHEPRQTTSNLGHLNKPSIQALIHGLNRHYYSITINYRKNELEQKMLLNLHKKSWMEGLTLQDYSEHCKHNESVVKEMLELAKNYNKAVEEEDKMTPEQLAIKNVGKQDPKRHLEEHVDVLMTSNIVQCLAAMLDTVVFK
# Sequence of 72 kDa type IV collagenase (P08253 whole entry): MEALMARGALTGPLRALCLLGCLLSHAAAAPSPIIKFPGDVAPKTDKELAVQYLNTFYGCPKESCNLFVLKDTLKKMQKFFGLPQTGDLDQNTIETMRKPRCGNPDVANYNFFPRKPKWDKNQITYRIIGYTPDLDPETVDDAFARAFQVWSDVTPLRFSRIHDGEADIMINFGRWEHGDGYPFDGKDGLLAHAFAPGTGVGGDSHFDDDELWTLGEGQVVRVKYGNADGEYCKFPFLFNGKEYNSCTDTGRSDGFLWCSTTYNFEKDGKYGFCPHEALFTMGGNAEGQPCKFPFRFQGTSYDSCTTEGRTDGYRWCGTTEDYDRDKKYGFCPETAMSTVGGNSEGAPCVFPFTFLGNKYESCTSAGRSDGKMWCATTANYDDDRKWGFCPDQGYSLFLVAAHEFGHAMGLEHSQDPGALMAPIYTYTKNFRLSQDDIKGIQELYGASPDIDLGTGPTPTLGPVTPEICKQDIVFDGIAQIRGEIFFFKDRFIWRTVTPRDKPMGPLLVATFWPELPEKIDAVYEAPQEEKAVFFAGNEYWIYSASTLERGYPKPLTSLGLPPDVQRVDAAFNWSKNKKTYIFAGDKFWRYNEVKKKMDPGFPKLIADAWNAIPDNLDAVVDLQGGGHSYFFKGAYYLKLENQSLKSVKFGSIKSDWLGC
structure (smiles),measurement,setting,value
Cc1csc(NC(=O)CSc2nc3sc(C)c(C)c3c(=O)[nH]2)n1,IC50,[1],24.3 µM (active)
same,IC50,[2],> 100 µM (inactive)
same,IC50,Prothrombin,43.6 µM (active)
CCn1c(=O)cc(SCC(=O)N2CCN(Cc3ccc4c(c3)OCO4)CC2)c2ccccc21,EC50,[3],> 79.4 µM (inactive)
same,EC50,[4],> 79.4 µM (not active)
same,EC50,[5],> 79.4 µM (not active)
CCc1cc(=O)oc2cc(C)cc(O)c12,EC50,[3],> 79.4 µM (inactive)
same,EC50,[4],> 79.4 µM (not active)
same,EC50,[5],21.1 µM (not active)
CC1CC(N(C(=O)c2ccc(Cl)cc2)c2ccccc2)c2ccccc2N1C(=O)c1ccco1 (centres undefined),CC50,Vero,15.1 µM (active)
COc1ccccc1C1C2=C(O)OCC2=Nc2cc3c(cc21)OCO3 (centres undefined),EC50,BJ [6],6.64 µM (inconclusive)
same,EC50,BJ [7],15.2 µM (inconclusive)
same,EC50,BJ [8],9.65 µM (inconclusive)
same,EC50,[9],9.6 µM (inconclusive)
same,EC50,BJ [10],< 0.104 µM (active)
Cc1ccc(OCC(=O)OCC(=O)c2cccc([N+](=O)[O-])c2)cc1C,EC50,Beta-galactosidase,> 40 µM (inactive)
same,IC50,[11],> 40 µM (not active)
CCCCC(=O)Nc1sc2c(c1C(=O)OCC)CCC(C=O)=C2Cl,CC50,[12],> 40 µM (active)
same,EC50,[13],5.83 µM (active)
same,EC50,[14],5.91 µM (active)
same,EC50,[15],> 32 µM (inactive)
same,AC50,Cytochrome P450 2C9,7.94 µM (inconclusive)
CN(C)S(=O)(=O)c1ccc(C(=O)Nc2nc(-c3cc4ccccc4o3)cs2)cc1,EC50,HEK293 [16],> 20 µM (inactive)
same,IC50,HEK293 [17],3.09 µM (active)
same,IC50,HEK293 [18],> 20 µM (inactive)
same,IC50,HEK293 [19],2.85 µM (active)
CCCCc1cc(=O)oc2c(CN(C)C)c(O)ccc12,IC50,Aminopeptidase N,30.2 µM (active)
Cc1cc(-c2nnc(S)n2-c2ccc(C)c(C)c2)no1,IC50,[20],> 100 µM (inactive)
same,IC50,[21],8.07 µM (active)
C=CCn1c(=O)c2ccccc2n2c(S)nnc12,IC50,[20],> 100 µM (inactive)
same,IC50,[21],2.61 µM (active)
CCOc1ccc(CCNC(=O)CSc2cc(=O)n(C)c3ccccc23)cc1OCC,EC50,[3],> 79.4 µM (inactive)
same,EC50,[4],> 79.4 µM (not active)
same,EC50,[5],> 79.4 µM (not active)
Cc1[nH]c(=S)c(C#N)c2c1CCCC2,IC50,[20],> 100 µM (inactive)
same,IC50,[21],5.25 µM (active)
COCCCn1c(=N)c(C(=O)NCC2CCCO2)cc2c(=O)n3ccccc3nc21 (centres undefined),IC50,Aminopeptidase N,60.2 µM (active)
CC(NC(=O)C1CCN(C(=O)c2cccs2)CC1)c1ccc(S(N)(=O)=O)cc1 (centres undefined),IC50,[1],9.98 µM (active)
same,IC50,[2],> 100 µM (inactive)
same,IC50,Prothrombin,> 100 µM (inactive)
COc1ccc(NP(=O)(Oc2ccccc2OC)Oc2ccccc2OC)cc1,EC50,[3],> 79.4 µM (inactive)
same,EC50,[4],> 79.4 µM (not active)
same,EC50,[5],> 79.4 µM (not active)
CN(C)CCCN(C(=O)c1cc(Cl)sc1Cl)c1nc2cc3c(cc2s1)OCO3,EC50,[15],> 32 µM (inactive)
Cc1cc(C)n2nc(C(=O)NNC(=O)c3ccc(Cl)cc3)nc2n1,IC50,Aminopeptidase N,15.9 µM (active)
same,EC50,[22],> 120 µM (not active)
same,EC50,[23],12.7 µM (active)
same,EC50,H4,> 120 µM (not active)
O=C(OCC(=O)c1ccc(Cl)cc1Cl)c1ccccn1,EC50,Beta-galactosidase,> 40 µM (inactive)
same,IC50,[11],35.9 µM (not active)
Cc1cc(C)c2sc(N(CCN(C)C)C(=O)c3cc(Cl)sc3Cl)nc2c1,EC50,[15],26.2 µM (inactive)
COc1cccc(N2[C@@H](CC(C)=O)c3ccc(/C=C/C(C)=O)cc3S2(=O)=O)c1,CC50,Vero,17.9 µM (active)
c1ccc(CN2CCc3[nH]c4ccccc4c3C2)cc1,GI50,SN12K1,15.2 µM (inactive)
Cc1ccc(NS(=O)(=O)c2cc([N+](=O)[O-])ccc2N/N=C/c2sc(N3CCOCC3)nc2-c2ccccc2)c(C)c1,EC50,Beta-galactosidase,> 40 µM (inactive)
same,IC50,[11],> 40 µM (not active)
same,EC50,[15],< 0.5 µM (active)
same,AC50,INS1,4.62 µM (active)
Cc1ccc(/N=C/c2c(C)[nH]n(-c3nc4ccccc4[nH]3)c2=O)cc1,EC50,BJ [6],2.84 µM (inconclusive)
same,EC50,BJ [7],3.03 µM (active)
same,EC50,BJ [8],3.62 µM (inconclusive)
same,EC50,[9],2.83 µM (active)
same,AC50,[24],5.84 µM (active)
same,EC50,BJ [10],> 133 µM (inactive)
same,AC50,INS1,1.42 µM (active)
